Assay results as given in the kinase profiling compilation of Christmann-Franck et al. (2016).

Assays:
Assay in all cases: KINOMEscan competition binding
Conditions in all cases: compound 0.5 µM
PDGFRA (human) = PDGFRA (human) (UniProt P16234)
STK32A (human) = STK32A (human) (UniProt Q8WU08)
STK32B (human) = STK32B (human) (UniProt Q9NY57)
MYLK3 (human) = MYLK3 (human) (UniProt Q32MK0)
EPHB2 (human) = EPHB2 (human) (UniProt P29323)
PRKCI (human) = PRKCI (human) (UniProt P41743)
ERBB4 (human) = ERBB4 (human) (UniProt Q15303)
STK17A (human) = STK17A (human) (UniProt Q9UEE5)
CSNK1G1 (human) = CSNK1G1 (human) (UniProt Q9HCP0)
PRKACB (human) = PRKACB (human) (UniProt P22694)
MAP3K12 (human) = MAP3K12 (human) (UniProt Q12852)
BRSK1 (human) = BRSK1 (human) (UniProt Q8TDC3)
SGK3 (human) = SGK3 (human) (UniProt Q96BR1)
CDKL1 (human) = CDKL1 (human) (UniProt Q00532)
GSK3B (human) = GSK3B (human) (UniProt P49841)
PRKACA (human) = PRKACA (human) (UniProt P17612)
CSNK2A2 (human) = CSNK2A2 (human) (UniProt P19784)
Chain of CSNK2A2 (human) (P19784 whole entry, looked up): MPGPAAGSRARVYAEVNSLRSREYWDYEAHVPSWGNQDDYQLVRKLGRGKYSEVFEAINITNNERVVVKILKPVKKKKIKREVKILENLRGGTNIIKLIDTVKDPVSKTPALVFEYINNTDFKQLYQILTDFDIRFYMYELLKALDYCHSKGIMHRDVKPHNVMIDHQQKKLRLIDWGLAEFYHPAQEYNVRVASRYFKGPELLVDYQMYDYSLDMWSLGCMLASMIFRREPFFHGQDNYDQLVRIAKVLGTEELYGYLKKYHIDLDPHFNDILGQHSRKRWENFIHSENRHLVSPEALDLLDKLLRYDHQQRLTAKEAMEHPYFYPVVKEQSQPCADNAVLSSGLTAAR

NEK6 (human) = NEK6 (human) (UniProt Q9HC98)
SIK3 (human) = SIK3 (human) (UniProt Q9Y2K2)
EPHB6 (human) = EPHB6 (human) (UniProt O15197)
[1] = test system: PIK3CA (human), P42336 [H1047L]
CAMK2A (human) = CAMK2A (human) (UniProt Q9UQM7)
Chain of CAMK2A (human) (Q9UQM7 whole entry, looked up): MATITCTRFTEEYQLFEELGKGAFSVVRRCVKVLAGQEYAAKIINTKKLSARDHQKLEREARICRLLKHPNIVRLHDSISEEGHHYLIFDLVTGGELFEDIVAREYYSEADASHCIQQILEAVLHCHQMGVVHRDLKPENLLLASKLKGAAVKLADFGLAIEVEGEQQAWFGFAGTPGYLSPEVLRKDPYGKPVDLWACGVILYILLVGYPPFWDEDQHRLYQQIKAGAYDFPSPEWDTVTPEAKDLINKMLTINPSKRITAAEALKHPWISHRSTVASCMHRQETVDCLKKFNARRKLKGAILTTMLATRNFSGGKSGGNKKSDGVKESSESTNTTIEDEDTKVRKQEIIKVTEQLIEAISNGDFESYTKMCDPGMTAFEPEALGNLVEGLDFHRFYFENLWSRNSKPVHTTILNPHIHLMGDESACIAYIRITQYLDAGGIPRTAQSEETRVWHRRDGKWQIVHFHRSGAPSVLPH

DAPK3 (human) = DAPK3 (human) (UniProt O43293)
FER (human) = FER (human) (UniProt P16591)
SRPK1 (human) = SRPK1 (human) (UniProt Q96SB4)
DDR2 (human) = DDR2 (human) (UniProt Q16832)
CLK2 (human) = CLK2 (human) (UniProt P49760)
EPHA2 (human) = EPHA2 (human) (UniProt P29317)
AURKA (human) = AURKA (human) (UniProt O14965)
AURKB (human) = AURKB (human) (UniProt Q96GD4)
CDC42BPG (human) = CDC42BPG (human) (UniProt Q6DT37)
Chain of CDC42BPG (human) (Q6DT37 whole entry, looked up): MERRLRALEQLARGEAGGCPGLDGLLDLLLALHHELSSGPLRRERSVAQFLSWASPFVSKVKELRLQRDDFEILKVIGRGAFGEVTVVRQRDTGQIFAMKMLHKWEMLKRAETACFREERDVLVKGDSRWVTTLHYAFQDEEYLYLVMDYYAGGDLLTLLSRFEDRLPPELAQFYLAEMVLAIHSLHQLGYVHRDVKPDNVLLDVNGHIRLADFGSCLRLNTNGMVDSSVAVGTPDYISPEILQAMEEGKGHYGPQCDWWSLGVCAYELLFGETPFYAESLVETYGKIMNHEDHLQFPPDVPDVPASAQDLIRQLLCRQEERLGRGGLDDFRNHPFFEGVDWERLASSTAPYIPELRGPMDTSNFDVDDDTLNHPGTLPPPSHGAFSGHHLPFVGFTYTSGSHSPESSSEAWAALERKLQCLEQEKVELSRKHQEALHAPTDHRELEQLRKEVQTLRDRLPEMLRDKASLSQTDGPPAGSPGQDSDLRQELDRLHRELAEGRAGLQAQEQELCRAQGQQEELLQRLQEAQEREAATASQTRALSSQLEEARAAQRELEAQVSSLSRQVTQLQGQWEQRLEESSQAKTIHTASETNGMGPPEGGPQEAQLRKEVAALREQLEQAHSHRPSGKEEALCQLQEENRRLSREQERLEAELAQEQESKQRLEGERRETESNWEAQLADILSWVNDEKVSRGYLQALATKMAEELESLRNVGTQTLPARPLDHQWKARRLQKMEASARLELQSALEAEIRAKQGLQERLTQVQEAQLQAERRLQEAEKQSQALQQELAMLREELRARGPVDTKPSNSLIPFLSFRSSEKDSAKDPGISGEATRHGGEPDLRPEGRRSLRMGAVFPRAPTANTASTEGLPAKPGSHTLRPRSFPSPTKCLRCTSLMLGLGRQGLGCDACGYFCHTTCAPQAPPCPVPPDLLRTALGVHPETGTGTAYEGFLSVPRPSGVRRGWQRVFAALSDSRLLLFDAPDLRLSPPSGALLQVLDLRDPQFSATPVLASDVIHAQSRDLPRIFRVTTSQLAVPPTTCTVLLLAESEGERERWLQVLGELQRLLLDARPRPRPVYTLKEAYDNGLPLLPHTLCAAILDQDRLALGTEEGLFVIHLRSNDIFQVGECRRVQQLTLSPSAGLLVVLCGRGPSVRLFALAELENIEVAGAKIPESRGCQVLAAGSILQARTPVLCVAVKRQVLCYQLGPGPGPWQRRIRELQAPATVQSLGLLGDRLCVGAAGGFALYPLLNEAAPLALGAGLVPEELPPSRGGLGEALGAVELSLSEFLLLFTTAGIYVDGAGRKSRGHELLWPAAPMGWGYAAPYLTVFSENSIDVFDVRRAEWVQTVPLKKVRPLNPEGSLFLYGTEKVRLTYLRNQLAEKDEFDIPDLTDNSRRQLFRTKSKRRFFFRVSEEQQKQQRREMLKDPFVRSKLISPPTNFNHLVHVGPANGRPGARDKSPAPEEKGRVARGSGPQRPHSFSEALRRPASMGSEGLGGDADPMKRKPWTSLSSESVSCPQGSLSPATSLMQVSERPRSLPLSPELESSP

[2] = test system: RET (human), P07949 [V804L]
PRKD1 (human) = PRKD1 (human) (UniProt Q15139)
IRAK4 (human) = IRAK4 (human) (UniProt Q9NWZ3)
EPHA1 (human) = EPHA1 (human) (UniProt P21709)
RIOK3 (human) = RIOK3 (human) (UniProt O14730)
STK16 (human) = STK16 (human) (UniProt O75716)
Chain of STK16 (human) (O75716 whole entry, looked up): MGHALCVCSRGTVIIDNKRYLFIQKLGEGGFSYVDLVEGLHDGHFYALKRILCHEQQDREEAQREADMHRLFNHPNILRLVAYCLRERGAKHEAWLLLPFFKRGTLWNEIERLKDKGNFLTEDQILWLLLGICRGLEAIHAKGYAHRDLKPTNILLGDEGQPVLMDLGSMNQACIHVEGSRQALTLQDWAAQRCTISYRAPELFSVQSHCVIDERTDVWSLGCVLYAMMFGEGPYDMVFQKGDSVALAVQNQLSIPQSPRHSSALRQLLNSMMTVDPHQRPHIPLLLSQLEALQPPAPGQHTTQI

[3] = test system: KIT (human), P10721 [D816H]
MAPK13 (human) = MAPK13 (human) (UniProt O15264)
EIF2AK1 (human) = EIF2AK1 (human) (UniProt Q9BQI3)
LATS2 (human) = LATS2 (human) (UniProt Q9NRM7)
MARK1 (human) = MARK1 (human) (UniProt Q9P0L2)

Chain of PDGFRA (human) (P16234 whole entry, looked up): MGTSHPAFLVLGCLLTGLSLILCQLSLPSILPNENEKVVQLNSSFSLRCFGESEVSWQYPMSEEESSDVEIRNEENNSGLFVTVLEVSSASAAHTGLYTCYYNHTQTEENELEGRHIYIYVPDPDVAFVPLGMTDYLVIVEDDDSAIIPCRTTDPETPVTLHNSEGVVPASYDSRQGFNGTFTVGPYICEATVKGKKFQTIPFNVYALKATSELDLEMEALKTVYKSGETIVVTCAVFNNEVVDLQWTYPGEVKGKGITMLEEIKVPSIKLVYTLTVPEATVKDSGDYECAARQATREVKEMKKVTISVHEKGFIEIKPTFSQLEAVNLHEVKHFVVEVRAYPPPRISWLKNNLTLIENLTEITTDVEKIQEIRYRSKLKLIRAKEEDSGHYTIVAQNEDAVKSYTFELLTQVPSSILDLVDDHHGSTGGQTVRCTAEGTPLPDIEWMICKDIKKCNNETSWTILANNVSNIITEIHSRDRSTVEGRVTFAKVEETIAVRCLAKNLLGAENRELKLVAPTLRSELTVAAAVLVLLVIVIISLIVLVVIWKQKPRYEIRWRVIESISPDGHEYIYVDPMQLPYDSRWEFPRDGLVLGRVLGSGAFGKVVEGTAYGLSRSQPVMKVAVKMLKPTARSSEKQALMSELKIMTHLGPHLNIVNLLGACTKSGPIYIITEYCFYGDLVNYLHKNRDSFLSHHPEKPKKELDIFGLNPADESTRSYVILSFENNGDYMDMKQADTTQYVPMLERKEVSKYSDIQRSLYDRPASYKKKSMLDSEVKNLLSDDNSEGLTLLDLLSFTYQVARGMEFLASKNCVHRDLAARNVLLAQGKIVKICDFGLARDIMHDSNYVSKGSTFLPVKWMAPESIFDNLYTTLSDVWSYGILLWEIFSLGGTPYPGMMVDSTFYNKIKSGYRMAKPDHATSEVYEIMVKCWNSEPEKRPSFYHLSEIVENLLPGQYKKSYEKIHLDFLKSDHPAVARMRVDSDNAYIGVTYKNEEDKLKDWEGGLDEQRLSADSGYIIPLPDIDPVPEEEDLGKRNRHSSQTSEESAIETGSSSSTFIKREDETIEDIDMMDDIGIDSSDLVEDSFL
Chain of EPHB2 (human) (P29323 whole entry, looked up): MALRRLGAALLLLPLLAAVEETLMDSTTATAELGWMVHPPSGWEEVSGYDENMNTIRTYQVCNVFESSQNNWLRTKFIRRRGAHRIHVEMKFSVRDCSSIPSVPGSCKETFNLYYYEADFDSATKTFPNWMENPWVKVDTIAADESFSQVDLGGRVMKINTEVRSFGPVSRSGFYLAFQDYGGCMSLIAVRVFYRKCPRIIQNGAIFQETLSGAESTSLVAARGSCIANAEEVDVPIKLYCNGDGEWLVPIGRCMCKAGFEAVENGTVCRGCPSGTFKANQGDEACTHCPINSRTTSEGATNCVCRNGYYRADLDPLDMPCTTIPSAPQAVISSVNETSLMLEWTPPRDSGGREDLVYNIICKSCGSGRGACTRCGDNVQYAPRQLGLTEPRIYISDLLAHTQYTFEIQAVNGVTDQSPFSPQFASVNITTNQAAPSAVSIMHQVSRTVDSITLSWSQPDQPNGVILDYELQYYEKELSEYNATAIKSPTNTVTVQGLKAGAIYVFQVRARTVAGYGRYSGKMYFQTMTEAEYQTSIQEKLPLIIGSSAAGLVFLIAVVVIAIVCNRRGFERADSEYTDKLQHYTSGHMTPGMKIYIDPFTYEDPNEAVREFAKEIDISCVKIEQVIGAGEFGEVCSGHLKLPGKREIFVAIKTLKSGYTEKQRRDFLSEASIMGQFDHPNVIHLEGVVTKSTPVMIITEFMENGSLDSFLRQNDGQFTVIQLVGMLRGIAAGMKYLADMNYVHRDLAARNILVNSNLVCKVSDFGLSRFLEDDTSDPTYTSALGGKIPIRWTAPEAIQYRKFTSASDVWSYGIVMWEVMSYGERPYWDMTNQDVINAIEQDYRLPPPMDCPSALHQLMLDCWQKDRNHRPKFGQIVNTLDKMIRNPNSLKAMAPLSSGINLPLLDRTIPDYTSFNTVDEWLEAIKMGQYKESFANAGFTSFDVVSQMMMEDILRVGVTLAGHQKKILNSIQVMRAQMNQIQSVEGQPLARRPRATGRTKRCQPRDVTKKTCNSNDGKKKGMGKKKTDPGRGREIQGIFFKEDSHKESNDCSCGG

Compound `Cn1c2ccccc2c2c3c(c4c5ccccc5n(CCC#N)c4c21)CNC3=O` has a kinase still bound, per cent of control (PDGFRA (human)) of 100%, a kinase still bound, per cent of control (STK32A (human)) of 94% and a kinase still bound, per cent of control (STK32B (human)) of 100%. For the same compound, the kinase still bound, per cent of control (MYLK3 (human)) was 100%, the kinase still bound, per cent of control (EPHB2 (human)) was 100% and the kinase still bound, per cent of control (PRKCI (human)) was 86%. It also gave a kinase still bound, per cent of control (ERBB4 (human)) of 82%, a kinase still bound, per cent of control (STK17A (human)) of 71% and a kinase still bound, per cent of control (CSNK1G1 (human)) of 100%. The kinase still bound, per cent of control (PRKACB (human)) was 67%, the kinase still bound, per cent of control (MAP3K12 (human)) was 89% and the kinase still bound, per cent of control (BRSK1 (human)) was 51%. For the same compound, the kinase still bound, per cent of control (SGK3 (human)) was 72%, the kinase still bound, per cent of control (CDKL1 (human)) was 81% and the kinase still bound, per cent of control (GSK3B (human)) was 81%. It also gave a kinase still bound, per cent of control (PRKACA (human)) of 100%, a kinase still bound, per cent of control (CSNK2A2 (human)) of 65% and a kinase still bound, per cent of control (NEK6 (human)) of 100%. For the same compound, the kinase still bound, per cent of control (SIK3 (human)) was 100%, the kinase still bound, per cent of control (EPHB6 (human)) was 50% and the kinase still bound, per cent of control [1] was 43%. For the same compound, the kinase still bound, per cent of control (CAMK2A (human)) was 27%, the kinase still bound, per cent of control (DAPK3 (human)) was 75% and the kinase still bound, per cent of control (FER (human)) was 3.2%. It also gave a kinase still bound, per cent of control (SRPK1 (human)) of 5.6%, a kinase still bound, per cent of control (DDR2 (human)) of 100% and a kinase still bound, per cent of control (CLK2 (human)) of 38%. It also gave a kinase still bound, per cent of control (EPHA2 (human)) of 87%, a kinase still bound, per cent of control (AURKA (human)) of 74% and a kinase still bound, per cent of control (AURKB (human)) of 32%. For the same compound, the kinase still bound, per cent of control (CDC42BPG (human)) was 100%, the kinase still bound, per cent of control [2] was 0.1% and the kinase still bound, per cent of control (PRKD1 (human)) was 24%. The kinase still bound, per cent of control (IRAK4 (human)) was 0.2%, the kinase still bound, per cent of control (EPHA1 (human)) was 97% and the kinase still bound, per cent of control (RIOK3 (human)) was 1.2%. It also gave a kinase still bound, per cent of control (STK16 (human)) of 84%, a kinase still bound, per cent of control [3] of 30% and a kinase still bound, per cent of control (MAPK13 (human)) of 100%. The kinase still bound, per cent of control (EIF2AK1 (human)) was 100%, the kinase still bound, per cent of control (LATS2 (human)) was 36% and the kinase still bound, per cent of control (MARK1 (human)) was 64%.
